In ChEMBL document CHEMBL3507680, “University of Dundee, Gates Library screen for HepG2 cell viability”:

Assay: Human HepG2 cell viability assay in 384 well format
Type: toxicity, cell-based
Design: dose 125 nL, time 70.5 hour; cytotoxicity at 70.5 h: concentration not given beside the values
Conditions: HepG2 cells, read-out: Inhibition
`CN(CCOc1ccccc1)C(=O)Nc1cccn(C)c1=O` showed a cytotoxicity at 70.5 h of 20.8%. With `COC(=O)CN(Cc1ccccc1C)C(=O)C1CCC1` the cytotoxicity at 70.5 h was 8.03%. Molecule `Cc1cc(C(=O)N2C[C@@H](CN3CCOCC3)C[C@H](CO)C2)nc(C)n1` has a cytotoxicity at 70.5 h of -5.29%. For `Cc1nn(C)c2nc(N(Cc3ccccn3)CC3CCCO3)sc12` (stereo unspecified), the cytotoxicity at 70.5 h was 17.1%. In the case of `COCC(=O)N[C@H]1C[C@@H](Cc2cc(CN3CCOCC3)on2)C1(C)C`, the cytotoxicity at 70.5 h was 11.2%. `c1ccc(N2CCCC3(COCCN(c4nccs4)C3)C2)nc1` (stereo unspecified) gave a cytotoxicity at 70.5 h of -0.38%. With `Cc1ccc(F)cc1NC(=O)CNc1cccc2c1CCCC2` the cytotoxicity at 70.5 h was -7.64%. In the case of `O=C(C[C@@H]1COC[C@H]2CN(Cc3ccsc3)C[C@@H]12)N1CCCC1`, the cytotoxicity at 70.5 h was -3.89%. For `c1ccc(OC[C@H]2CCC[C@]23CN(Cc2nccs2)CCO3)nc1`, the cytotoxicity at 70.5 h was -4.23%. For `Fc1cnc(N2CCCC3(CN(Cc4ccncc4)CCO3)C2)nc1` (stereo unspecified), the cytotoxicity at 70.5 h was -6.32%. With `Cc1ccc(NC2CCN(C(=O)c3ccc(Cl)cc3F)CC2)nn1` the cytotoxicity at 70.5 h was 23.4%. `CCNc1cc(N2CCN(C(=O)c3ccc(OC)cc3)CC2)nc(C)n1` showed a cytotoxicity at 70.5 h of -2.56%. Work on `COCCNc1nnc(-c2cnc(C)cn2)s1` yielded a cytotoxicity at 70.5 h of -3.71%. For `Cc1occc(=O)c1OCc1noc(C(=O)NC(C)C)n1`, the cytotoxicity at 70.5 h was -15.1%. With `O=S1(=O)CCC(c2nnc(-c3cnc4onc(C5CC5)c4c3)o2)C1` (stereo unspecified) the cytotoxicity at 70.5 h was -2.78%. `CC(C)NC(=O)c1nnn(-c2cccc(C(F)(F)F)c2)c1N` showed a cytotoxicity at 70.5 h of -4.84%. Molecule `CNc1nc(CNC(=O)Nc2cccc(F)c2C)cs1` has a cytotoxicity at 70.5 h of -7.06%. `CN(C)C(=O)COCc1cncc2c1CCN(Cc1cnn(C)c1)C2` gave a cytotoxicity at 70.5 h of -8.65%. With `CC(C)c1nc(C2CCCN2CC(=O)N2CCc3ccccc32)no1` (stereo unspecified) the cytotoxicity at 70.5 h was -3.85%. `CCCC(=O)N1CCc2nc3cc(OC)c(OC)cc3c(=O)n2CC1` gave a cytotoxicity at 70.5 h of -5.67%. `CN(C)C(=O)CN1CCCC12CCCN(c1ncc(F)cn1)C2` (stereo unspecified) gave a cytotoxicity at 70.5 h of -4.71%. `Cc1nc2cc(-c3nccn3C)nn2c(N2CCC(O)CC2)c1C` gave a cytotoxicity at 70.5 h of -3.32%. `Nc1no[n+]([O-])c1C(=O)NCc1cccnc1` gave a cytotoxicity at 70.5 h of -0.714%. `O=C(NCc1cnn2cccnc12)C1CC(=O)N(Cc2cccnc2)C1` (stereo unspecified) gave a cytotoxicity at 70.5 h of 30.6%. `CCc1nccn1C1CCCN(C(=O)c2cnc3ccccc3n2)C1` (stereo unspecified) showed a cytotoxicity at 70.5 h of -2.77%. Work on `Cc1cc(C)c2nc(CN3CCC(C#N)CC3)cc(O)c2c1` yielded a cytotoxicity at 70.5 h of -1.43%. Molecule `CNc1nc(C(=O)N2CCCN(c3ccnc(C)c3)CC2)cs1` has a cytotoxicity at 70.5 h of -5.86%. With `Cc1cc2ccccc2n1CCC(=O)NCCCc1nnc(N)s1` the cytotoxicity at 70.5 h was 33.9%. `CCCC(=O)Nc1cccc(C(=O)N(C)CCCC2CCCO2)c1` (stereo unspecified) showed a cytotoxicity at 70.5 h of 2.48%. `CCc1nc(-c2ccnc(N3CCNCC3)n2)no1` showed a cytotoxicity at 70.5 h of -2.35%. In the case of `Cc1cccc2c1OCCCC2NCc1nnc2n1CCCCC2` (stereo unspecified), the cytotoxicity at 70.5 h was -7.8%. Work on `O=C(Cc1cccs1)N1Cc2nc(CN3CCCC3)oc2C1` yielded a cytotoxicity at 70.5 h of 13%. `Cc1c(C(=O)NCC(C)C)nnn1-c1cccc2c1CCN(CCO)C2` showed a cytotoxicity at 70.5 h of -2.54%. With `CC(C)CC(=O)N1CCN(c2cc(N(C)C)cnn2)CC1` the cytotoxicity at 70.5 h was -3.64%. Work on `O=C(NC1CC1)c1cnc(-c2noc3cc(N4CCCCC4)ccc23)s1` yielded a cytotoxicity at 70.5 h of -0.737%. Molecule `CCOCC1CN(Cc2cnn(C)c2)Cc2nn(CC3CC3)cc21` (stereo unspecified) has a cytotoxicity at 70.5 h of -10.4%. Molecule `CC(C)NC(=O)C1CCC2(CCN(Cc3cnn(C)c3)CC2)C1` (stereo unspecified) has a cytotoxicity at 70.5 h of -8.81%. With `CNS(=O)(=O)c1cccc(CNc2ccc(C#N)cn2)c1` the cytotoxicity at 70.5 h was -7.11%. `CC(C)CCC(=O)N1CCC(c2nnc(CN(C)CCO)n2C)CC1` showed a cytotoxicity at 70.5 h of -2.45%. With `O=C(C[C@@H]1COC[C@H]2CN(CC3CCOCC3)C[C@@H]12)N1CCCCO1` the cytotoxicity at 70.5 h was -8.58%. With `CN(C)C(=O)c1nc(CN2C(=O)OC[C@@H]2c2ccccc2)no1` the cytotoxicity at 70.5 h was 15.9%. For `Cc1ccc(CN(C)C(=O)c2cnsn2)cc1`, the cytotoxicity at 70.5 h was 4.93%. Molecule `CC(C)COC1CCN(C(=O)c2cc3ccccc3c(=O)[nH]2)CC1` has a cytotoxicity at 70.5 h of -4.65%. With `Cc1c(S(=O)(=O)NC2CC2)cc2c(C)cc(=O)n3c2c1CCC3` the cytotoxicity at 70.5 h was 0.953%. `O=C(Cc1ccc2c(c1)OCO2)N1CCN(c2ccccc2Cl)C(=O)C1` showed a cytotoxicity at 70.5 h of -4.7%. In the case of `CC(C)C1SCC(=O)Nc2c1c(O)nn2C1CCCCC1` (stereo unspecified), the cytotoxicity at 70.5 h was -23.1%. Work on `CCn1ncc2c1CN(C(=O)c1cc(C)oc1C)CC2COC` (stereo unspecified) yielded a cytotoxicity at 70.5 h of -0.428%. `CC(C)Cc1ncc2c(n1)CN(c1cc(NC3CC3)nc(N)n1)C2` showed a cytotoxicity at 70.5 h of 0.238%. With `CCCOc1cccc(C(=O)Oc2cc(=O)n3cccc(C)c3n2)c1` the cytotoxicity at 70.5 h was -12.8%. Molecule `CCN(CC)c1ncc(CNC2CCc3nc(C(C)C)nn3C2)s1` (stereo unspecified) has a cytotoxicity at 70.5 h of -5.99%. `Cc1cccc(CN2CC[C@@H]3[C@@H]2CCN3C(=O)Cc2cccs2)n1` showed a cytotoxicity at 70.5 h of -11.7%. `Cc1ccsc1CN(Cc1ncccc1C(=O)O)C1CC1` showed a cytotoxicity at 70.5 h of -5.62%. With `CC(C)N1CCN(C(=O)c2ccccc2NCc2cccnc2)CC1` the cytotoxicity at 70.5 h was -5.19%. `CCOc1cccc(CN2CCCC(Nc3ccc(F)cc3)C2)c1O` (stereo unspecified) showed a cytotoxicity at 70.5 h of -6.06%. In the case of `COCCN1C(=O)CO[C@@H]2CN(S(=O)(=O)c3ccccc3)C[C@H]21`, the cytotoxicity at 70.5 h was 5.06%. Molecule `Cc1ccc(CN2CCCC(c3nn(C)c4nccnc34)C2)s1` (stereo unspecified) has a cytotoxicity at 70.5 h of 9.04%. Molecule `O=C(c1cc[nH]n1)N1CCc2c(nc(N3CCCCC3)[nH]c2=O)C1` has a cytotoxicity at 70.5 h of -4.43%. With `O=C(c1cccc(F)c1)N1CC[C@@H]2CN(c3ncccn3)CCO[C@@H]2C1` the cytotoxicity at 70.5 h was -15.1%. `CC(C)(C)CC(=O)N1CCC(n2cc(C3(O)CCCC3)nn2)CC1` showed a cytotoxicity at 70.5 h of -7.65%. Molecule `CCNC(=O)N1CCC2(CC1)CCn1c(C3CC3)cnc12` has a cytotoxicity at 70.5 h of 30.6%. `CCCc1nnc(N2CCCC(c3nnc(Cn4ccnc4)n3C)C2)s1` (stereo unspecified) showed a cytotoxicity at 70.5 h of -2.6%. With `Cc1ccc(NC2CCN(C(=O)CCNS(C)(=O)=O)CC2)nn1` the cytotoxicity at 70.5 h was -19%. `CCOc1cccc(C(C(=O)O)N(C)Cc2cc(C)no2)c1` (stereo unspecified) gave a cytotoxicity at 70.5 h of -9.85%. Work on `O=C(NCCNC(=O)c1scnc1Cl)c1ccccc1` yielded a cytotoxicity at 70.5 h of -6.16%. `CCc1ccc(C(C)NC(=O)CN(C)Cc2ccc(C)o2)cc1` (stereo unspecified) showed a cytotoxicity at 70.5 h of -15%. `Cc1cc(C(F)(F)F)nc(CNc2cc(C)nc3cc(C)nn23)n1` gave a cytotoxicity at 70.5 h of -2.86%. With `CN(Cc1cnn(C)c1)C(=O)CN1CCCC(Cn2cncn2)C1` (stereo unspecified) the cytotoxicity at 70.5 h was 48%. `Cc1nc(C(C)(C)NC(=O)Nc2ccncc2)no1` showed a cytotoxicity at 70.5 h of -0.296%. With `CN(C1CCCC1)C(C)(C)C(=O)NCCNC(N)=O` the cytotoxicity at 70.5 h was -0.603%. Molecule `CC(C)(C)CC(=O)N1CSCC1C(=O)NC1=NCCS1` (stereo unspecified) has a cytotoxicity at 70.5 h of 19.4%. For `COc1ccccc1OCCC(=O)NCc1ncc(C)c(OC)c1C`, the cytotoxicity at 70.5 h was -4.64%. `COCC(C)N1CCc2onc(-c3ccc(C(F)(F)F)cc3)c2C1` (stereo unspecified) gave a cytotoxicity at 70.5 h of -7.25%. For `Cc1ccc(F)c(OC2CCCN(c3cnn(C)c3)C2=O)c1` (stereo unspecified), the cytotoxicity at 70.5 h was -3.77%. With `CCOCc1nc(N2CCOCC2)sc1C(=O)NCc1ccco1` the cytotoxicity at 70.5 h was -6.85%. With `CN(Cc1cnn(-c2ccccc2)n1)C1CCCN(c2cccnn2)C1` (stereo unspecified) the cytotoxicity at 70.5 h was -12.2%. For `Cc1cnc(C(=O)N2CCOCC2C)cn1` (stereo unspecified), the cytotoxicity at 70.5 h was -16.2%. For `CC(NC(=O)N(C)Cc1cnn(C)c1)c1nncn1C` (stereo unspecified), the cytotoxicity at 70.5 h was -2.09%. In the case of `O=C(CCN1CCCO1)N1CC[C@@H](c2ccc3ccccc3c2)[C@H](O)C1`, the cytotoxicity at 70.5 h was 0.165%. `Cc1cnn(C2CN(c3ncnc4[nH]ccc34)C2)c1` gave a cytotoxicity at 70.5 h of -3.84%. Work on `O=C1NCCN1C1CCN(Cc2nc(-c3ccoc3)no2)CC1` yielded a cytotoxicity at 70.5 h of 7.71%. `CC(O)CN1CCC(CNCc2ccccc2C(F)(F)F)CC1` (stereo unspecified) gave a cytotoxicity at 70.5 h of 13.9%.
